Values after ≈ are worked out from the molar mass of the structure shown. Where two headings read alike, the source gives them in different places.
Key:
Assay type in all cases: cell-based
[1] = system: Staphylococcus aureus ATCC29213 rpoB^D417Y; assay: microbe, parasite or virus in culture
Method: (§1) Representative compounds were assayed for antimicrobial activity as follows: Minimum Inhibitory Concentrations (“MICs”) were determined by the microbroth dilution method as per NCCLS guidelines (National Committee for Clinical Laboratory Standards, 2000), except that all growth incubations were conducted at 37° C. Bacterial cultures were tested in the following bacteriological media: S. aureus, S. epidermidis, and E. coli in Cation-Adjusted Mueller-Hinton Broth, S. pneumoniae in THY Broth supplemented with 1 mg/mL catalase under 5% CO2 atmosphere, S. pyogenes in THY Broth, E. faecalis in BHI Broth, H. influenzae in BHI Broth supplemented with 0.75 μL of 1 mg/mL NAD and 150 μL of 1 mg/ml hematin per 5 mL, and M smegmatis in Middlebrook Broth plus ADC Enrichment.

[2] = system: Staphylococcus aureus ATCC29213 rpoB^H418Y; assay: microbe, parasite or virus in culture
Method: as §1

[3] = system: Enterococcus faecalis ATCC29212; assay: MIC, microbroth dilution; details: rifS, BHI Broth, 37° C., read-out: MIC
Method in brief: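 Antimicrobial activity against E. faecalis was assessed as the MIC, using the microbroth dilution procedure described by NCCLS (2000) guidelines. BHI Broth served as the culture medium, and all incubations for growth were performed at 37° C rather than under the guideline's default conditions.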

[4] = system: Escherichia coli ATCC25922; assay: MIC, microbroth dilution; details: rifS, Cation-Adjusted Mueller-Hinton Broth, 37° C.
[5] = system: Haemophilus influenzae ATCC10211; assay: MIC, microbroth dilution
Method in brief: (§2)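 Media varied by organism: cation-adjusted Mueller-Hinton for S. aureus strains, NAD- and hematin-supplemented BHI for H. influenzae, Middlebrook with ADC for M. smegmatis.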

[6] = system: Mycobacterium smegmatis ATCC700084; assay: MIC, microbroth dilution
Method in brief: as §2

[7] = system: Staphylococcus aureus ATCC29213; assay: MIC, microbroth dilution; details: rifS, Cation-Adjusted Mueller-Hinton Broth, 37° C., read-out: MIC
Method in brief: as §2

[8] = system: Staphylococcus epidermidis ATCC12228; assay: MIC, microbroth dilution; details: rifS, Cation-Adjusted Mueller-Hinton Broth, 37° C.
Method in brief: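 MICs by microbroth dilution per NCCLS guidelines, all incubations at 37 °C. S. aureus in cation-adjusted Mueller-Hinton broth; H. influenzae in BHI broth with NAD and hematin; M. smegmatis in Middlebrook broth plus ADC enrichment.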

[9] = system: Streptococcus pneumoniae ATCC6303; assay: MIC, microbroth dilution; details: rifS, THY Broth supplemented with 1 mg/mL catalase under 5% CO2, 37° C.
[10] = system: Streptococcus pyogenes ATCC19615; assay: MIC, microbroth dilution; details: rifS, THY Broth, 37° C.
[11] = MIC, summary over rifampin-susceptible Gram-positive strains; details: read-out: MICs
Method: as §1

[12] = system: H. influenzae ATCC 10211 and E. coli ATCC 25922; assay: MIC, summary over Gram-negative bacteria
Method: as §1

[13] = Mycolicibacterium smegmatis, ATCC700084, rifS, Middlebrook Broth plus ADC Enrichment, 37° C., read-out: MIC

MIC [3] [µg/mL] | MIC [6, 13] [µg/mL] | MIC [7] [µg/mL] | Structure (SMILES) | other results
0.25 to 62 (≈ 0.209 to 51.9 µM) | 0.063 to 31 | 0.002 to 1.95 (≈ 0.00167 to 1.63 µM) | COc1c(N2CCN(C3CCN(C(=O)O[C@H]4[C@H](C)[C@H](O)[C@H](C)[C@@H](O)[C@@H](C)/C=C/C=C(/C)C(=O)NC5=C(N6CCOCC6)C(=O)c6c(c(O)c(C)c7c6C(=O)[C@@](C)(O/C=C/[C@H](OC)[C@H]4C)O7)C5=O)C3)CC2)c(F)cc2c(=O)c(C(=O)O)cn(C3CC3)c12 (stereo partly drawn) [Example 62] | 
0.25 to 62 (≈ 0.207 to 51.3 µM) | 0.063 to 31 | 0.002 to 1.95 (≈ 0.00165 to 1.61 µM) | COc1c(N2CCN(C3CCN(C(=O)O[C@H]4[C@H](C)[C@H](O)[C@H](C)[C@@H](O)[C@@H](C)/C=C/C=C(/C)C(=O)NC5=C(N6CCOCC6)C(=O)c6c(c(O)c(C)c7c6C(=O)[C@@](C)(O/C=C/[C@H](OC)[C@H]4C)O7)C5=O)CC3)CC2)c(F)cc2c(=O)c(C(=O)O)cn(C3CC3)c12 [Example 60] | 
0.25 to 62 (≈ 0.28 to 69.5 µM) | 0.063 to 31 | 0.002 to 1.95 (≈ 0.00224 to 2.19 µM) | CO[C@H]1/C=C/O[C@@]2(C)Oc3c(C)c(O)c4c(c3C2=O)C(=O)C(N2CCOCC2)=C(NC(=O)/C(C)=C\C=C\[C@H](C)[C@H](O)[C@@H](C)[C@@H](O)[C@@H](C)[C@H](OC(=O)NCCc2cccs2)[C@@H]1C)C4=O [Example 19, 25-O-Desacetyl-(1-carbonyl-2-thiophen-2-yl-ethylamine) 3-morpholino rifamycin S] | 
0.25 to 62 (≈ 0.289 to 71.7 µM) | 0.063 to 31 | 0.002 to 1.95 (≈ 0.00231 to 2.25 µM) | CO[C@H]1/C=C/O[C@@]2(C)Oc3c(C)c(O)c4c(c3C2=O)C(=O)C(N2CCOCC2)=C(NC(=O)/C(C)=C\C=C\[C@H](C)[C@H](O)[C@@H](C)[C@@H](O)[C@@H](C)[C@H](OC(=O)N2CCN(C)CC2)[C@@H]1C)C4=O [Example 6, 25-O-Desacetyl-(1-carbonyl-4-methyl-piperazine) 3-morpholino rifamycin S] | 
0.25 to 62 (≈ 0.314 to 77.9 µM) | 0.063 to 31 | 0.002 to 1.95 (≈ 0.00251 to 2.45 µM) | CNC(=O)O[C@H]1[C@H](C)[C@H](O)[C@H](C)[C@@H](O)[C@@H](C)/C=C/C=C(/C)C(=O)NC2=C(N3CCOCC3)C(=O)c3c(c(O)c(C)c4c3C(=O)[C@@](C)(O/C=C/[C@H](OC)[C@H]1C)O4)C2=O [Example 21, 25-O-Desacetyl-(carbonyl-methylamino) 3-morpholino rifamycin S] | 
0.25 to 62 (≈ 0.284 to 70.5 µM) | 0.063 to 31 | 0.002 to 1.95 (≈ 0.00228 to 2.22 µM) | CO[C@H]1/C=C/O[C@@]2(C)Oc3c(C)c(O)c4c(c3C2=O)C(=O)C(N2CCOCC2)=C(NC(=O)/C(C)=C\C=C\[C@H](C)[C@H](O)[C@@H](C)[C@@H](O)[C@@H](C)[C@H](OC(=O)NCCN2CCCC2)[C@@H]1C)C4=O [Example 32, 25-O-Desacetyl-(carbonyl-2-Pyrrolidin-1-yl-ethylamine) 3-morpholino rifamycin S] | 
0.25 to 62 (≈ 0.268 to 66.4 µM) | 0.063 to 31 | 0.002 to 1.95 (≈ 0.00214 to 2.09 µM) | CO[C@H]1/C=C/O[C@@]2(C)Oc3c(C)c(O)c4c(c3C2=O)C(=O)C(N2CCOCC2)=C(NC(=O)/C(C)=C\C=C\[C@H](C)[C@H](O)[C@@H](C)[C@@H](O)[C@@H](C)[C@H](OC(=O)N2CCC(N3CCCCC3)CC2)[C@@H]1C)C4=O [Example 35, 25-O-Desacetyl-(carbonyl-[1,4′]bipiperidinyl) 3-morpholino rifamycin S] | 

More lines, now with the values behind:

Structure (SMILES) | MIC [3] [µg/mL] | MIC [6, 13] [µg/mL] | MIC [7] [µg/mL] | other results
CO[C@H]1/C=C/O[C@@]2(C)Oc3c(C)c(O)c4c(O)c(c(/C=N/N5CCN(C)CC5)c(O)c4c3C2=O)NC(=O)/C(C)=C\C=C\[C@H](C)[C@H](O)[C@@H](C)[C@@H](O)[C@@H](C)[C@H](OC(C)=O)[C@@H]1C [rifampin] | 0.98 (≈ 1.19 µM) | 64 | 0.008 (≈ 0.00972 µM) | MIC ([1]; Staphylococcus aureus, ATCC29213): > 64 µg/mL; MIC ([1]; rifR, Cation-Adjusted Mueller-Hinton Broth, 37° C.): >64 µg/mL; MIC ([2]; ATCC29213, rifR, Cation-Adjusted Mueller-Hinton Broth, 37° C.): 7.8 µg/mL (≈ 9.48 µM); MIC ([2]; ATCC29213, text, rifampin-resistant strain S. aureus ATCC 29213 RpoB^H418Y): 8 µg/mL (≈ 9.72 µM); MIC [4]: 16 µg/mL (≈ 19.4 µM); MIC [5]: 0.24 µg/mL (≈ 0.292 µM); MIC ([6]; mycobacterial strain M smegamatis ATCC 700084): 64 µg/mL (≈ 77.8 µM); MIC [8]: 0.03 µg/mL (≈ 0.0365 µM); MIC [9]: 0.061 µg/mL (≈ 0.0741 µM); MIC [10]: 0.013 µg/mL (≈ 0.0158 µM); MIC [11]: 0.03 to 1.3 µg/mL (≈ 0.0365 to 1.58 µM); MIC [12]: 0.24 to 16 µg/mL (≈ 0.292 to 19.4 µM)
COc1c(N2CCN(C(=O)O[C@H]3[C@H](C)[C@H](O)[C@H](C)[C@@H](O)[C@@H](C)/C=C/C=C(/C)C(=O)NC4=C(N5CCOCC5)C(=O)c5c(c(O)c(C)c6c5C(=O)[C@@](C)(O/C=C/[C@H](OC)[C@H]3C)O6)C4=O)C(C)C2)c(F)cc2c(=O)c(C(=O)O)cn(C3CC3)c12 (stereo partly drawn) [Example 28, 25-O-Desacetyl-(carbonyl-1-cyclopropyl-6-fluoro-8-methoxy-7-(3-methyl-piperazin-1-yl)-4-oxo-1,4-dihydro-quinoline-3-carboxylic acid) 3-morpholino rifamycin S] | 0.25 to 62 (≈ 0.219 to 54.4 µM) | 0.063 to 31 | 0.002 to 1.95 (≈ 0.00175 to 1.71 µM) | 
CO[C@H]1/C=C/O[C@@]2(C)Oc3c(C)c(O)c4c(c3/C2=N/O)C(=O)C(N2CCOCC2)=C(NC(=O)/C(C)=C\C=C\[C@H](C)[C@H](O)[C@@H](C)[C@@H](O)[C@@H](C)[C@H](OC(=O)NC2CCN(c3c(F)cc5c(=O)c(C(=O)O)cn(C6CC6)c5c3Cl)C2)[C@@H]1C)C4=O (stereo partly drawn) [Example 68] | 0.25 to 62 (≈ 0.218 to 54.1 µM) | 0.063 to 31 | 0.002 to 1.95 (≈ 0.00175 to 1.7 µM) | 
COc1c(N2CCN(C(=O)C3CN(C(=O)O[C@H]4[C@H](C)[C@H](O)[C@H](C)[C@@H](O)[C@@H](C)/C=C/C=C(/C)C(=O)NC5=C(N6CCOCC6)C(=O)c6c(c(O)c(C)c7c6C(=O)[C@@](C)(O/C=C/[C@H](OC)[C@H]4C)O7)C5=O)C3)C(C)C2)c(F)cc2c(=O)c(C(=O)O)cn(C3CC3)c12 (stereo partly drawn) [Example 65] | 0.25 to 62 (≈ 0.204 to 50.7 µM) | 0.063 to 31 | 0.002 to 1.95 (≈ 0.00163 to 1.59 µM) | 
CO[C@H]1/C=C/O[C@@]2(C)Oc3c(C)c(O)c4c(c3C2=O)C(=O)C(N2CCOCC2)=C(NC(=O)/C(C)=C\C=C\[C@H](C)[C@H](O)[C@@H](C)[C@@H](O)[C@@H](C)[C@H](OC(=O)N2CCN(c3ccc(C(=O)Nc5ccc6[nH]c(C)cc6c5)cc3C(F)(F)F)CC2)[C@@H]1C)C4=O [Example 51, 25-O-Desacetyl-(carbonyl-N-(2-methyl-1H-indol-5-yl)-4-piperazin-1-yl-3-trifluoromethyl-benzamide) 3-morpholino rifamycin S] | 0.25 to 62 (≈ 0.214 to 53.1 µM) | 0.063 to 31 | 0.002 to 1.95 (≈ 0.00171 to 1.67 µM) | 
CO[C@H]1/C=C/O[C@@]2(C)Oc3c(C)c(O)c4c(c3C2=O)C(=O)C(N2CCOCC2)=C(NC(=O)/C(C)=C\C=C\[C@H](C)[C@H](O)[C@@H](C)[C@@H](O)[C@@H](C)[C@H](OC(=O)NCc2cc(-c3ccccn3)no2)[C@@H]1C)C4=O [Example 47, 25-O-Desacetyl-(carbonyl-C-(3-Pyridin-2-yl-isoxazol-5-yl)-methylamino) 3-morpholino rifamycin S] | 0.25 to 62 (≈ 0.266 to 66 µM) | 0.063 to 31 | 0.002 to 1.95 (≈ 0.00213 to 2.07 µM) | 
CO[C@H]1/C=C/O[C@@]2(C)Oc3c(C)c(O)c4c(c3C2=O)C(=O)C(N2CCOCC2)=C(NC(=O)/C(C)=C\C=C\[C@H](C)[C@H](O)[C@@H](C)[C@@H](O)[C@@H](C)[C@H](OC(=O)NCC#Cc2cccc(CO)c2)[C@@H]1C)C4=O [Example 44, 25-O-Desacetyl-(carbonyl-[3-(3-amino-prop-1-ynyl)-phenyl]-methanol) 3-morpholino rifamycin S] | 0.25 to 62 (≈ 0.27 to 67 µM) | 0.063 to 31 | 0.002 to 1.95 (≈ 0.00216 to 2.11 µM) | 
COc1ccc(CNC(=O)O[C@H]2[C@H](C)[C@H](O)[C@H](C)[C@@H](O)[C@@H](C)/C=C/C=C(/C)C(=O)NC3=C(N4CCOCC4)C(=O)c4c(c(O)c(C)c5c4C(=O)[C@@](C)(O/C=C/[C@H](OC)[C@H]2C)O5)C3=O)cc1 [Example 26, 25-O-Desacetyl-(carbonyl-4-methoxybenzylamino) 3-morpholino rifamycin S] | 0.25 to 62 (≈ 0.277 to 68.7 µM) | 0.063 to 31 | 0.002 to 1.95 (≈ 0.00222 to 2.16 µM) | 
COc1c(N2CCN(C(=O)CNC(=O)O[C@H]3[C@H](C)[C@H](O)[C@H](C)[C@@H](O)[C@@H](C)/C=C/C=C(/C)C(=O)NC4=C(N5CCOCC5)C(=O)c5c(c(O)c(C)c6c5C(=O)[C@@](C)(O/C=C/[C@H](OC)[C@H]3C)O6)C4=O)CC2)c(F)cc2c(=O)c(C(=O)O)cn(C3CC3)c12 [Example 64] | 0.25 to 62 (≈ 0.211 to 52.4 µM) | 0.063 to 31 | 0.002 to 1.95 (≈ 0.00169 to 1.65 µM) | 

— US7250413B2, “C-25 carbamate rifamycin derivatives with activity against drug-resistant microbes” (Cumbre Pharmaceuticals Inc., priority 2004, dated 2007)
